Data on 9 molecules can be found in paper PMC7673538 (PLoS Biology, 2020).

Structures are written as SMILES. Like-named read-outs stand apart in the source and are kept apart here. Some results are limits rather than exact numbers.

The nature of series [1]: in vitro. The note with it: human.
Series [2] deals with CV-B3. Put plainly: microbe, parasite or virus in culture. It is filed as cell-based, coxsackievirus B3. The note with it: for EC50: Enterovirus B.
The test system of series [3] is EV-A71. As to the kind of experiment: microbe, parasite or virus in culture. Type of series: cell-based, enterovirus A71. The settings on record: Enterovirus A, EVA71, HeLa R19, read-out: EC50 EV-A71.
For series [4], the system named is EV-D68. Put plainly: microbe, parasite or virus in culture. The settings on record: Enterovirus D. It is filed as cell-based, enterovirus D68.
A short description of series [5]: in vitro. The settings on record: monkey.
Series [6] deals with HeLa R19 cells.
For series [7], the system named is CV-B3. Put plainly: microbe, parasite or virus in culture. Type of series: cell-based, coxsackievirus B3. The settings on record: Enterovirus B.
Series [8] relates to PV-1. As to the kind of experiment: microbe, parasite or virus in culture. The note with it: Enterovirus C, HeLa R19, read-out: EC50 PV-1. Type of series: cell-based, poliovirus 1.
For series [9], the system named is CV-B3. As to the kind of experiment: microbe, parasite or virus in culture. The note with it: Enterovirus B, CVB3, BGM. It is filed as cell-based, coxsackievirus B3.
Series [10] concerns HRV-A2. As to the kind of experiment: microbe, parasite or virus in culture. It is filed as cell-based, human rhinovirus. The settings on record: Human rhinovirus sp., HRVA2, HeLa R19, read-out: EC50 HRV-A2.
For series [11], the system named is HRV-B14. As to the kind of experiment: microbe, parasite or virus in culture. Type of series: cell-based, human rhinovirus. The note with it: Human rhinovirus sp.
Series [12] in a line: in vitro. The settings on record: human. This is another data set of the same source.
The test system of series [13] is CV-A24. Put plainly: microbe, parasite or virus in culture. The settings on record: Enterovirus C, CVA24, HeLa R19, read-out: EC50 CV-A24. It is filed as cell-based, coxsackievirus A24.
The target in series [14] is T1, human DAT (Homo sapiens, UniProt Q01959).
T1 construct: expressed in transfected cells; host or cells: HEK293 (gift of Dr. Hoener, F. Hoffmann-La Roche)
It is filed as cell-based.

[15] abbreviates: CVB3, HeLa R19, read-out: CV-B3 EC50 Average.
Setting [16] is: CVB3, HeLa R19, read-out: CV-B3 Exp 1 EC50.
Where [17] appears, read: CVB3, HeLa R19, read-out: CV-B3 Exp2 EC50.
Where [18] appears, read: EVD68, HeLa R19, read-out: EC50 EV-D68.
Where [19] appears, read: EVD68, HeLa R19, read-out: EC50 Exp1.
[20] abbreviates: EVD68, HeLa R19, read-out: EC50 Exp2.
[21] abbreviates: CVB3, HAP1, read-out: EC50 Hap1 Average.
Where [22] appears, read: CVB3, HAP1, read-out: Exp 1 EC50 Hap1.
Setting [23] is: CVB3, HeLa R19, read-out: Exp 1 EC50 HelaR19.
Where [24] appears, read: CVB3, HeLa R19, read-out: Exp 2 EC50 HelaR19.
[25] abbreviates: HRVB14, HeLa R19, read-out: EC50 HRV-B14.

T1 sequence (Q01959 whole entry): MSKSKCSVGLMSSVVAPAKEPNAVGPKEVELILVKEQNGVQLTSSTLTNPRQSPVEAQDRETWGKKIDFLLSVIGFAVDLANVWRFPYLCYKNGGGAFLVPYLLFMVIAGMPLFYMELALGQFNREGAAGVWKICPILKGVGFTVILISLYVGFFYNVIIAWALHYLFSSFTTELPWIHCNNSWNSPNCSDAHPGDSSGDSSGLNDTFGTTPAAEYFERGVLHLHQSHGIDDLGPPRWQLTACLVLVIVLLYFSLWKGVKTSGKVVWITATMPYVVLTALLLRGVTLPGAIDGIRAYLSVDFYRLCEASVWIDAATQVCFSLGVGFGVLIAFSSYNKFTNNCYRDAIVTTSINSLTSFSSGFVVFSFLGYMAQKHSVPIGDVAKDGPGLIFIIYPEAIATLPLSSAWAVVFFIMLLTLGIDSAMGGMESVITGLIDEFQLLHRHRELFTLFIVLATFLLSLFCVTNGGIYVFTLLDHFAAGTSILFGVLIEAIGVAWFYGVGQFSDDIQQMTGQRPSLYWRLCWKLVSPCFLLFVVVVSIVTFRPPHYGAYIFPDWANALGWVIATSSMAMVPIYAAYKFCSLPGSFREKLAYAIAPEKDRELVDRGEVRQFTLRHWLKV

Regarding `COc1ccc(N(Cc2ccc(F)cc2)C(C)=O)cc1` [Compound 5a, N-(4-fluorobenzyl)-N-(4-methoxyphenyl)acetamide], the CC50 in [1] (CC50), in [1] (CC50 Average), in [1] (Exp 1 CC50) and in series [1] (Exp2 CC50) was > 30 µM each time. In addition, the “antiviral activity against CV-B3 (in words)” value in series [2] is on record as “loss of antiviral activity”. In addition, the EC50 in series [2] (CVB3, HeLa R19) was > 30 µM; in [2] (setting [15]), > 30 µM; in series [2] (setting [16]), > 30 µM; in [2] (setting [17]), > 30 µM.
Consider `COc1ccc(N(Cc2ccc(F)cc2)S(=O)(=O)c2ccco2)cc1` [Compound 5b, N-(4-fluorobenzyl)-N-(4-methoxyphenyl)furan-2-sulfonamide], for which the CC50 in series [1] (CC50), in [1] (CC50 Average), in series [1] (Exp 1 CC50) and in series [1] (Exp2 CC50) was > 30 µM each time. For the same molecule, in series [2], the “antiviral activity against CV-B3 (in words)” value was “loss of antiviral activity”. In addition, the EC50 was > 30 µM in series [2] (CVB3, HeLa R19); > 30 µM in series [2] (setting [15]); > 30 µM in [2] (setting [16]); > 30 µM in series [2] (setting [17]).
In the case of `COc1ccc(N(Cc2ccc(F)cc2)C(=O)c2ccc[nH]2)cc1` [Compound 5c, N-(4-fluorobenzyl)-N-(4-methoxyphenyl)-1H-pyrrole-2-carboxamide], the EC50 is > 30 µM in series [3]; 3.47 ± 0.08 µM in series [4] (setting [18]); 3.39 µM in series [4] (setting [19]); 3.54 µM in series [4] (setting [20]); 2.52 µM in [7] (setting [21]); 2.05 µM in series [7] (setting [22]). Moreover, the EC50 was 2.99 µM in series [7] (CVB3, HAP1, read-out: Exp 2 EC50 Hap1); 4.82 ± 0.14 µM in series [2] (CVB3, HeLa); 3.01 µM in series [2] (setting [15]); 3.21 µM in [2] (setting [16]); 2.81 µM in series [2] (setting [17]); 4.81 µM in [2] (CVB3, HeLa R19, read-out: EC50 HelaR19 Average). For the same molecule, the EC50 is 4.95 µM in series [2] (setting [23]); 4.68 µM in series [2] (setting [24]); > 30 µM in series [8]; 4.18 µM in series [9] (read-out: EC50 BGM Average); 3.86 µM in [9] (read-out: Exp 1 EC50 BGM); 4.5 µM in [9] (read-out: Exp 2 EC50 BGM). Also, the EC50 in series [10], in [11] (setting [25]) and in [13] was > 30 µM each time. Further, the CC50 in series [1] (CC50 Average) was > 30 µM; in series [1] (CC50 HelaR19 Average) it was > 100 µM; in [1] (Exp 1 CC50) it was > 30 µM; in series [1] (Exp 1 CC50 HelaR19), > 100 µM; in [1] (Exp2 CC50), > 30 µM; in [1] (Exp 2 CC50 HelaR19) it was > 100 µM. In addition, the CC50 is > 100 µM in series [5] (CC50); 56 µM in series [5] (CC50 BGM Average); 58 µM in series [5] (Exp 1 CC50 BGM); 54 µM in [5] (Exp 2 CC50 BGM); > 100 µM in series [12] (CC50); > 100 µM in series [12] (CC50 Hap1 Average). The CC50 in series [12] (Exp 1 CC50 Hap1) and in series [12] (Exp 2 CC50 Hap1) was > 100 µM in each case. Further, the “cytotoxicity (in words)” value in series [6] is given as “no cytotoxicity”.
For `COc1ccc(N(Cc2ccc(F)cc2)C(=O)c2cccs2)cc1` [Compound 5d, N-(4-Fluorobenzyl)-N-(4-methoxyphenyl)thiophene-2-carboxamide], the EC50 was > 30 µM in series [3]; 2.82 ± 0.4 µM in series [4] (setting [18]); 2.42 µM in [4] (setting [19]); 3.21 µM in [4] (setting [20]); 0.25 µM in series [7] (setting [21]); 0.17 µM in series [7] (setting [22]). Also, the EC50 in series [2] (CVB3, HeLa R19, read-out: 50% effective concentration [EC50]) is 0.51 ± 0.05 µM; in series [2] (setting [16]), 0.47 µM; in series [2] (setting [17]) it was 0.55 µM; in series [2] (setting [23]) it was 0.52 µM; in series [2] (setting [24]) it was 0.31 µM; in series [8], > 30 µM. Also, the EC50 is 0.63 µM in [9] (read-out: EC50 BGM Average); 0.49 µM in [9] (read-out: Exp 1 EC50 BGM); 0.77 µM in series [9] (read-out: Exp 2 EC50 BGM); > 30 µM in series [10]; 9.65 µM in [11] (HRVB14, HeLa R19, read-out: EC50 Exp1); 8.93 µM in [11] (HRVB14, HeLa R19, read-out: EC50 Exp2). Moreover, the figures for the EC50 in [11] (setting [25]) and in series [13] were 9.29 ± 0.36 µM and > 30 µM, respectively. Also, the CC50 in series [1] (CC50 Average) is > 30 µM; in series [1] (CC50 HelaR19 Average) it was 53 µM; in series [1] (Exp 1 CC50) it was > 30 µM; in series [1] (Exp 1 CC50 HelaR19) it was 52 µM; in series [1] (Exp2 CC50) it was > 30 µM; in [1] (Exp 2 CC50 HelaR19) it was 54.1 µM. The CC50 in series [5] (CC50) was 66 ± 1.05 µM; in series [5] (CC50 BGM Average) it was 66 µM; in [5] (Exp 1 CC50 BGM) it was 65 µM; in series [5] (Exp 2 CC50 BGM) it was 67.1 µM; in series [12] (CC50 Hap1 Average), 53.9 µM; in [12] (Exp 1 CC50 Hap1), 53.9 µM. The CC50 in series [12] (Exp 2 CC50 Hap1) came to 54 µM. In addition, the “cytotoxicity (in words)” value in series [6] (human, monkey) is on record as “cytotoxicity in a similar range as the parental compound 1”. Also, the “increase of antiviral activity against CV-B3” value in series [2] was “approximately 4 fold”.
On to `COc1ccc(N(Cc2ccc(F)cc2)C(=O)C2CCCO2)cc1` (stereo not drawn) [Compound 5f, N-(4-Fluorobenzyl)-N-(4-methoxyphenyl)tetrahydrofuran-2-carboxamide], for which the CC50 in series [1] (CC50), in series [1] (CC50 Average), in series [1] (Exp 1 CC50) and in [1] (Exp2 CC50) was > 30 µM in each case. Besides, the “antiviral activity against CV-B3 (in words)” value in series [2] is on record as “loss of antiviral activity”. In addition, the EC50 was > 30 µM in series [2] (CVB3, HeLa R19); > 30 µM in series [2] (setting [15]); > 30 µM in series [2] (setting [16]); > 30 µM in series [2] (setting [17]).
For the molecule `COc1ccc(N(Cc2ccc(F)cc2)Cc2ccco2)cc1` [Compound 5g, N-(4-fluorobenzyl)-N-(furan-2-ylmethyl)-4-methoxyaniline], the CC50 in series [1] (CC50), in series [1] (CC50 Average), in [1] (Exp 1 CC50) and in series [1] (Exp2 CC50) was > 30 µM throughout. For the same molecule, the “antiviral activity against CV-B3 (in words)” value in series [2] was “loss of antiviral activity”. Besides, the EC50 in series [2] (CVB3, HeLa R19) was > 30 µM; in [2] (setting [15]), > 30 µM; in series [2] (setting [16]), > 30 µM; in series [2] (setting [17]) it was > 30 µM.
In the case of `CNCC(=O)N(Cc1ccc(F)cc1)c1ccc(OC)cc1` [Compound 6, N-(4-fluorobenzyl)-N-(4-methoxyphenyl)-2-(methylamino)acetamide], the CC50 in [1] (CC50), in series [1] (CC50 Average), in series [1] (Exp 1 CC50) and in [1] (Exp2 CC50) was > 30 µM each time. Besides, in series [2], the “antiviral activity against CV-B3 (in words)” value was “loss of antiviral activity”. The EC50 in [2] (CVB3, HeLa R19) was > 30 µM; in [2] (setting [15]) it was > 30 µM; in series [2] (setting [16]) it was > 30 µM; in series [2] (setting [17]), > 30 µM.
`COc1ccc(N(Cc2ccco2)C(=O)c2ccc(F)cc2)cc1` [Compound 15, 4-Fluoro-N-(furan-2-ylmethyl)-N-(4-methoxyphenyl)benzamide]: the CC50 in [1] (CC50), in series [1] (CC50 Average), in series [1] (Exp 1 CC50) and in series [1] (Exp2 CC50) was > 30 µM each time. In series [2], the “antiviral activity against CV-B3 (in words)” value is “abolished antiviral acitivty”. Besides, the EC50 was > 30 µM in [2] (CVB3, HeLa R19); > 30 µM in series [2] (setting [15]); > 30 µM in series [2] (setting [16]); > 30 µM in [2] (setting [17]).
Consider `CNCCC(Oc1ccc(C(F)(F)F)cc1)c1ccccc1` (stereo not drawn) [fluoxetine, reference compound], for which, in [14], the “inhibition of DAT function (in words)” value is “promiscuously inhibited also the DAT and NET activity at 100 μM”.
